# Results reported in ChEMBL document CHEMBL1148156, “Chemical constituents of Millettia taiwaniana: structure elucidation of five new isoflavonoids and their cancer chemopreventive activity” (2004).
# What was measured:
# Assay type in all cases: functional
# Mus musculus [1] = assay: Inhibition of DMBA-induced/TPA-promoted carcinogenesis in ICR mouse assessed as number of skin papillomas per mouse at 85 nmol administered 1 hr before TPA treatment measured after 20 weeks
# Mus musculus [2] = assay: Inhibition of DMBA-induced/TPA-promoted carcinogenesis in ICR mouse assessed as mouse bearing papillomas at 85 nmol administered 1 hr before TPA treatment measured after 8 weeks; parameters: scale not given: the % may be the effect or the level left
# Mus musculus [3] = assay: Inhibition of DMBA-induced/TPA-promoted carcinogenesis in ICR mouse assessed as mouse bearing papillomas at 85 nmol administered 1 hr before TPA treatment measured after 10 weeks; parameters: scale not given: the % may be the effect or the level left
# Mus musculus [4] = assay: Inhibition of DMBA-induced/TPA-promoted carcinogenesis in ICR mouse assessed as mouse bearing papillomas at 85 nmol administered 1 hr before TPA treatment measured after 20 weeks; parameters: scale not given: the % may be the effect or the level left
# Mus musculus [5] = assay: Inhibition of DMBA-induced/TPA-promoted carcinogenesis in ICR mouse assessed as number of skin papillomas per mouse at 85 nmol administered 1 hr before TPA treatment measured after 14 weeks
smiles,measurement,setting,value
CC(C)=CCc1c2c(c(O)c3c(=O)c(-c4ccc(O)c(O)c4)coc13)C=CC(C)(C)O2 [AURICULASIN],Activity,Mus musculus [1],4.9
same,Activity,Mus musculus [2],13%
same,Activity,Mus musculus [3],27%
same,Activity,Mus musculus [4],87%
same,Activity,Mus musculus [5],<3
